In patent US20180353462A1, “[…] AGENTS […] FLAVONOID DERIVATIVES TARGETING KINASES, SIRTUINS AND ONCOGENIC AGENTS FOR THE TREATMENT OF CANCERS” (priority 2015, published 2018) one finds IC50 data, which are given here for 18 compounds.

As usually defined, the IC50 is the concentration that gives 50% inhibition.

One test has as its target T1, FLT3 (Homo sapiens, UniProt P36888).
T1 construct: made in house
T1 sequence (P36888 27-993): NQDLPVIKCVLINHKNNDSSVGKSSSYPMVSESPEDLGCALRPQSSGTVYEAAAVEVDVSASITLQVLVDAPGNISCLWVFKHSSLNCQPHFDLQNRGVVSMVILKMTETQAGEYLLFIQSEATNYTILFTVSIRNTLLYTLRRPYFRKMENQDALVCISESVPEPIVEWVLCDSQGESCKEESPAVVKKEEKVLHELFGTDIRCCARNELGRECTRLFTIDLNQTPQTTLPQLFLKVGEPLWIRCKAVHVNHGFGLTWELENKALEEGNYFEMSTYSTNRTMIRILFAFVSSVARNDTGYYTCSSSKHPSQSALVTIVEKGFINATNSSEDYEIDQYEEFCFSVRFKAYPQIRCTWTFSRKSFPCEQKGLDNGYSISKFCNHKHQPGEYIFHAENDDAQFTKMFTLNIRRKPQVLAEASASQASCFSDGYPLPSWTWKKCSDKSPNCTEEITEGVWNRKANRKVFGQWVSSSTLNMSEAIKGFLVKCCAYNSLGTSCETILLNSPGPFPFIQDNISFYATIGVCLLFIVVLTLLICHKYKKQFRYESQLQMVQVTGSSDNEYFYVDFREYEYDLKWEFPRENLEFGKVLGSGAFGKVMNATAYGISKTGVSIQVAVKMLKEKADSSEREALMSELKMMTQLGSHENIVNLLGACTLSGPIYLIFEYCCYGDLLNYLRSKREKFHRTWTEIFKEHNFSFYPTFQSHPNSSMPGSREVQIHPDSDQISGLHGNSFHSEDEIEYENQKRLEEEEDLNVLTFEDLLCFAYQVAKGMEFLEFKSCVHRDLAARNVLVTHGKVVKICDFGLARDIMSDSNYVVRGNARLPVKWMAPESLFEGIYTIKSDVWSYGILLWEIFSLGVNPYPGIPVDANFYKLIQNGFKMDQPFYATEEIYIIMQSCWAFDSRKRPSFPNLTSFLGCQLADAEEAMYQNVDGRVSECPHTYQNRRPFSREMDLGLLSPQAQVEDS
In kind it is binding. The protocol:
(§1) Cannabis flavonoids and their analogs were subjected to kinase inhibition assay. The compounds were first screened at a single concentration of 10 μM in the primary assay. […] To determine the kd or IC50 values, competition binding assays were established, authenticated and executed as described previously. […] See also, Karaman et al., “A Quantitative Analysis Of Kinase Inhibitor Selectivity”, Nat. Biotechnol. […] For most assays, kinases were fused to T7 phage strains (Fabian, supra) and for the other assays, kinases were produced in HEK-293 cells after which they were tagged with DNA for quantitative PCR detection. In general, full-length constructs were used for small, single domain kinases, and catalytic domain constructs for large multi-domain kinases. […] The liganded beads were blocked with excess biotin and washed with blocking buffer (SeaBlock (Pierce), 1% BSA, 0.05% Tween 20, 1 mM DTT) to remove unbound ligand and to reduce non-specific phage binding. […] All reactions were performed in polypropylene 384-well plates in a final volume of 0.04 ml. […] The kinase concentration in the eluates was measured by quantitative PCR. An illustration of the kinase interaction process is presented below. Kd/IC50 values were determined using a standard dose response curve using the hill equation. Curves were fitted using a non-linear least square fit with the Levenberg-Marquardt algorithm.

The target of a further test is T2, FLT3(ITD) (Homo sapiens, UniProt P36888).
T2 construct: In general, full-length constructs were used for small, single domain kinases, and catalytic domain constructs for large multi-domain kinases; fused on or other part: T7 phage fusion or DNA tag for qPCR detection (general statement)
T2 sequence (P36888 1-993): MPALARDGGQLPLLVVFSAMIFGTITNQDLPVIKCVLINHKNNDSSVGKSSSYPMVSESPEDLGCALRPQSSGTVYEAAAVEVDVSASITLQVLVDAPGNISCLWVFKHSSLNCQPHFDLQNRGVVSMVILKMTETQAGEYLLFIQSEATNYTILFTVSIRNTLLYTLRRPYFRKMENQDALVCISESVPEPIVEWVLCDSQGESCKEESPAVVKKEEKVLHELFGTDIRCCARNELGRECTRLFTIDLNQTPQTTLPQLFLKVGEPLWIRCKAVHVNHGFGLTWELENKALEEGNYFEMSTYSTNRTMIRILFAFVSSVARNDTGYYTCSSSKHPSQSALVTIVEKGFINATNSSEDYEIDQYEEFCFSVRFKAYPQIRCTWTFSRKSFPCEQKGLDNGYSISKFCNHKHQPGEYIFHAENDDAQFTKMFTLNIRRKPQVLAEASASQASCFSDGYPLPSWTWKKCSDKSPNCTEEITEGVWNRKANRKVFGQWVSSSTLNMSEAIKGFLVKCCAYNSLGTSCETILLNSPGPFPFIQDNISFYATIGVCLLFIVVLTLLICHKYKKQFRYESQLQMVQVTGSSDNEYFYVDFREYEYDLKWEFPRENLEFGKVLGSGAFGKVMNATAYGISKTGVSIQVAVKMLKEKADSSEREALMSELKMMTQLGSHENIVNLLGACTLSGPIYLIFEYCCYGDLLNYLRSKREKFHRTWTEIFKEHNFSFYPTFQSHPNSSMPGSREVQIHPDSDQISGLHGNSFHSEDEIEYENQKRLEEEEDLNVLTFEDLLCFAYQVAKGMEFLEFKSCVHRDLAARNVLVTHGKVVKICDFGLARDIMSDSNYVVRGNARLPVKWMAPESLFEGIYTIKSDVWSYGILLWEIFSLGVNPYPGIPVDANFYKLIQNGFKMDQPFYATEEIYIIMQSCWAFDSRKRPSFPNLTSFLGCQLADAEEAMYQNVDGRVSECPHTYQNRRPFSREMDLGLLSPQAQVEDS
In kind it is binding. How it is done: as §1

Setting [1] is: Table 1 kinase panel, read-out: IC50 (nM) FLT3.
Setting [2] is: Table 1 kinase panel, read-out: IC50 (nM) FLT3(ITD).
Setting [3] is: Table 4, read-out: Acute Myeloid Leukemia Kinases FLT3 IC50.
[4] abbreviates: Table 4, read-out: Acute Myeloid Leukemia Kinases FLT3-ITD IC50.

Read-outs that look alike come from different tables or passages of the source. Bounds are passed on as bounds.

Consider `COc1cc(-c2cc(=O)c3c(O)c(C/C=C(\C)CCC=C(C)C)c(O)cc3o2)ccc1O` [FBL-03A], for which the IC50 on FLT3 (setting [1]) and on FLT3(ITD) (setting [2]) was > 20000 nM throughout.
`COc1cc(-c2cc(=O)c3c(O)c(CC=C(C)C)c(O)cc3o2)ccc1O` [FBL-03B]: the IC50 came out at 41.9 nM on FLT3 (setting [1]) and 57 nM at FLT3(ITD) (setting [2]).
For `COc1cc(-c2cc(=O)c3c(O)cc(O)c(C/C=C(\C)CCC=C(C)C)c3o2)ccc1O` [FBL-03C] the same measures were > 20000 nM and > 20000 nM.
In the case of `COc1ccc(-c2cc(=O)c3c(O)c(C/C=C(\C)CCC=C(C)C)c(O)cc3o2)cc1OC` [FBL-03D], the IC50 at FLT3 (setting [1]) and on FLT3(ITD) (setting [2]) was > 30000 nM throughout.
As for `COc1cc(-c2cc(=O)c3c(O)cc(O)c(CC=C(C)C)c3o2)ccc1O` [FBL-03G], the figures for the IC50 on FLT3 (setting [1]) and at FLT3(ITD) (setting [2]) were 44 nM and < 1000 nM, respectively.
Take `COc1ccc(C2CC(=O)c3c(O)cc(O)cc3O2)cc1O` (stereo not drawn) [FBLGS-74]: the figures for the IC50 at FLT3 (setting [3]) and on FLT3(ITD) (setting [4]) were 16600 nM and 9090 nM, respectively.
For `O=c1cc(-c2ccccc2)oc2cc(O)cc(O)c12` [FBLGS-75] the same measures were 220 nM and 91 nM.
For `Cc1cc2oc(-c3cccc(N)c3)cc(=O)c2c([N+](=O)[O-])c1C` [FBLGS-76], the IC50 at FLT3 (setting [3]) worked out at 870 nM; at FLT3(ITD) (setting [4]), 750 nM.
Regarding `O=c1cc(-c2ccc(O)c(O)c2)oc2cc(O)cc(O)c12` [FBLGS-77], the IC50 on FLT3 (setting [3]) was determined as 1320 nM; at FLT3(ITD) (setting [4]), 799 nM.
`COc1cc(O)c2c(=O)c(O)c(-c3ccc(O)c(O)c3)oc2c1` [FBLGS-78]: the IC50 came to 307 nM at FLT3 (setting [3]) and 345 nM at FLT3(ITD) (setting [4]).
As for `COc1cc(O)c2c(=O)c(O)c(-c3ccc(O)c(O)c3)oc2c1` [FBLGS-79], the IC50 at FLT3 (setting [3]) came to 25 nM; at FLT3(ITD) (setting [4]) it was 84 nM.
Regarding `COc1cc(O)c2c(=O)c(O)c(-c3ccc(O)c(OC)c3)oc2c1` [FBLGS-80], the IC50 is 60 nM at FLT3 (setting [3]) and 84 nM on FLT3(ITD) (setting [4]).
As for `COc1cc(-c2oc3cc(O)ccc3c(=O)c2O)ccc1O` [FBLGS-81], the results for the IC50 on FLT3 (setting [3]) and at FLT3(ITD) (setting [4]) were 1.9 nM and 3.8 nM, respectively.
Regarding `O=C1CC(c2ccc(O)c(O)c2)Oc2cc(O)cc(O)c21` (stereo not drawn) [FBLGS-82], the IC50 worked out at 17400 nM on FLT3 (setting [3]) and 12100 nM on FLT3(ITD) (setting [4]).
On to `O=c1c(O)c(-c2ccc(O)c(O)c2)oc2cc(O)ccc12` [FBLGS-83], for which the IC50 on FLT3 (setting [3]) came out at 578 nM; at FLT3(ITD) (setting [4]) it was 180 nM.
With `O=c1c(O)c(-c2ccc(O)c(O)c2)oc2cc(O)cc(O)c12` [FBLGS-84], the figures for the IC50 at FLT3 (setting [3]) and at FLT3(ITD) (setting [4]) were 822 nM and 453 nM, respectively.
As to `COc1cc(-c2cc(=O)c3c(O)c(OC)c(OC)cc3o2)ccc1O` [FBLGS-85], the IC50 turned out to be 50 nM on FLT3 (setting [3]) and 57 nM on FLT3(ITD) (setting [4]).
Turning to `COc1cc(-c2cc(=O)c3c(O)c(OC)c(O)cc3o2)ccc1O` [FBLGS-86], the IC50 at FLT3 (setting [3]) stood at 74 nM; at FLT3(ITD) (setting [4]), 45 nM.
